Results taken from patent EP4560029A1, “METHOD FOR THE DIAGNOSIS OF ANEURYSM, AND INHIBITORS FOR USE IN THE PREVENTION OR TREATMENT OF ANEURYSM” (Fundacion Instituto De Investigacion Sanitaria Fundacion …, priority 2023, dated 2025).

Tests used:
[1] = test system: shFbn1-VSMCs; assay: DON incubation of Fbn1-silenced primary VSMCs: immunoblot, flow cytometry, qPCR; format: cell-based, murine
Protocol: (§1) Isolation and culture of primary mouse VSMCs were previously described. Tissue was digested with a solution of collagenase and elastase (Worthington Biochem) until a single-cell suspension was obtained. All experiments with primary VSMCs were performed during passages 2-7. Lentiviral transduction was performed in VSMCs over 5 h at a multiplicity of infection = 3. The medium was then replaced with fresh DMEM supplemented with 10% FBS and cells were cultured for five more days, treated with NR for five more days and serum-starved for 16h. The HEK-293T (CRL-1573) and Jurkat (Clone E6-1, TIB-152) cell lines, required for high-titer lentivirus production and lentivirus titration respectively, were purchased from ATCC. The experiments were performed during passages 5-10. All cells tested negative for Mycoplasma.
The GFPT2 and GFP coding sequence was obtained from Origene. Lentiviruses expressing shRNA targeting murine Fbnl, and control shRNA were purchased from Sigma-Aldrich. Pseudo-typed lentiviruses were produced by transient calcium phosphate transfection of HEK-293T cells and concentrated from culture supernatant by ultracentrifugation (2 hours at 128,000xg; Ultraclear Tubes; SW28 rotor and Optima L-100 XP Ultracentrifuge; Beckman). Viruses were suspended in cold sterile PBS and titrated by transduction of Jurkat cells for 48h. Transduction efficiency (GFP-expressing cells and Puromycin resistant-cells) and cell death (propidium iodide staining) were quantified by flow cytometry.
Aortas were extracted after perfusion with 5 ml saline solution, and the adventitia layer was discarded. Liquid nitrogen frozen tissue was homogenized using a cold-mortar and an automatic bead homogenizer (MagNA Lyzer, Roche). Total RNA was isolated with Trizol (Life Technologies). […] The amount of target mRNA in samples was estimated by the 2-CT relative quantification method, using B2M, YWHAZ and PP1A for normalization. Fold ratios were calculated relative to mRNA expression levels from controls. […]

[2] = test system: Fbn1^C1039G/+ mice; assay: DON by osmotic minipumps in Marfan mouse model: aortic ultrasound, blood pressure, histology, immunoblot, qPCR, RNA-seq; format: in vivo
Protocol: (§2) Marfan mouse model which harbor a Fbn1^C1039G/+ allele (JAX stock #012885). Wild-type littermates were used as controls for Marfan mice. DON dissolved in saline, (Sigma-Aldrich), at 5 ng* kg^-1 min^-1 and ISRIB (MedChemExpress) at 10mg* kg^-1 min^-1 were infused using subcutaneous osmotic minipumps (Model 2004, Alzet Corp). NR (Novalix) was administered intraperitoneally at 1000 mg/kg in saline every other day. Mice were housed at the pathogen-free animal facility of the CNIC and CBMSO following the animal care standards of the institution. Animal procedures were approved by the CNIC and CBMSO-UAM Ethics Committee and the Madrid regional authorities and conformed with EU Directive 2010/63EU and Recommendation 2007/526/EC regarding the protection of animals used for experimental and other scientific purposes, enforced in Spanish law under Real Decreto 1201/2005.
(§3) Arterial blood pressure (BP) was measured by the mouse-tail cuff method using the automated BP-2000 Blood Pressure Analysis System (Visitech Systems, Apex, NC, USA). Mice were trained for BP measurements every day for five consecutive days. After training period, BP was measured one day before treatment to determine the baseline BP values in each mouse cohort. BP measurements were recorded in mice located in a tail-cuff restrainer over a warmed surface (37 °C). Fifteen consecutive systolic and diastolic BP measurements were made, and the last 10 readings per mouse were recorded and averaged. For in vivo ultrasound images, the aortic diameter was monitored in isoflurane-anesthetized mice (2% isoflurane) by highfrequency ultrasound with a VEVO 2100 echography device (VisualSonics, Toronto, Canada) at 30-micron resolution. Maximal internal aortic diameters were measured at diastole using VEVO 2100 software, version 1.5.0.
Aortas were extracted after perfusion with 5 ml saline solution, and the adventitia layer was discarded. Liquid nitrogen frozen tissue was homogenized using a cold-mortar and an automatic bead homogenizer (MagNA Lyzer, Roche). Total RNA was isolated with Trizol (Life Technologies). Total RNA (1 µg) was first digested with DNAse and reverse-transcribed with Maxima First Strand cDNA Synthesis Kit (ThermoFisher). For analysis of mtDNA levels, total DNA from cells and tissues was extracted with the SurePrep kit (Fisher Scientific) or Trizol respectively, according to the manufacture's guidelines. qPCR reactions were performed in triplicate with SYBR master mix (Promega), according to the manufacturer's guidelines. To examine probe specificity, we conducted a post-amplification melting-curve analysis. For each reaction, only one melting-temperature (Tm) peak was produced. The amount of target mRNA in samples was estimated by the 2-CT relative quantification method, using B2M, YWHAZ and PP1A for normalization. Fold ratios were calculated relative to mRNA expression levels from controls.
Aortas were extracted after perfusion of cold saline solution and the adventitia layer was discarded. Frozen tissue was homogenized, and total RNA was isolated with Trizol ([…]). RNA from Libraries were prepared according to the instructions of the Kit "NEBNext Ultra Directional RNA Library Prep kit for Illumina" (New England Biolabs), following the protocol "Poly(A) mRNA Magnetic Isolation Module". The input yield of total RNA to start the protocol was >300 ng quantified by an Agilent 2100 Bioanalyzer using a RNA 6000 nano LabChip kit. The obtained libraries were validated and quantified by an Agilent 2100 Bioanalyzer using a DNA7500 LabChip kit and an equimolecular pool of libraries was titrated by quantitative PCR using the "Kapa-SYBR FAST qPCR kit forLightCycler480" (Kapa BioSystems) and a reference standard for quantification. After processing on the Illumina HiSeq 2500 instrument, FastQ files were generated containing nucleotide data and quality scores for each position. RNA-seq reads were mapped to the Mus musculus reference genome, GRCm38.p6, using Hisat2 v2.1.0 software. […]

[3] = test system: Fbn1^+/+ mice; assay: Glucosamine in drinking water to fuel HBP, wild-type mice: aortic ultrasound, tail-cuff blood pressure, aortic histology; format: in vivo, mouse
Protocol: as §2, §3
After euthanization by CO2 inhalation, mice were perfused with saline. […] Elastic lamina breaks, defined as interruptions in the elastic fibers, were counted in the entire medial layer of three consecutive cross-sections per mouse, using 4-16 mice per experiment, and the mean number of breaks was calculated. […]

[4] = test system: Fbn1^C1039G/+ mice; assay: Glucosamine in drinking water to fuel HBP, Marfan mouse model: aortic ultrasound, aortic histology; format: in vivo
Protocol: (§4) Marfan mouse model which harbor a Fbn1^C1039G/+ allele (JAX stock #012885). Wild-type littermates were used as controls for Marfan mice. DON dissolved in saline, (Sigma-Aldrich), at 5 ng* kg^-1 min^-1 and ISRIB (MedChemExpress) at 10mg* kg^-1 min^-1 were infused using subcutaneous osmotic minipumps (Model 2004, Alzet Corp). NR (Novalix) was administered intraperitoneally at 1000 mg/kg in saline every other day. Mice were housed at the pathogen-free animal facility of the CNIC and CBMSO following the animal care standards of the institution. […]
as §3, with “Mice were trained for BP measurements every day for five consecutive days.” left out, “1.5.0. […]” for “1.5.0.”

[5] = test system: shFbn1-VSMCs; assay: ISRIB incubation of Fbn1-silenced primary VSMCs: qPCR; format: cell-based, murine; conditions: ISRIB incubation for 48h
Protocol: as §1, with “The HEK-293T (CRL-1573) and Jurkat (Clone E6-1, TIB-152) cell lines, required for high-titer lentivirus production and lentivirus titration respectively, were purchased from ATCC. The experiments were performed during passages 5-10. All cells tested negative for Mycoplasma.” left out
The GFPT2 and GFP coding sequence was obtained from Origene. […] Transduction efficiency (GFP-expressing cells and Puromycin resistant-cells) and cell death (propidium iodide staining) were quantified by flow cytometry.
Aortas were extracted after perfusion with 5 ml saline solution, and the adventitia layer was discarded. […] The amount of target mRNA in samples was estimated by the 2-CT relative quantification method, using B2M, YWHAZ and PP1A for normalization. Fold ratios were calculated relative to mRNA expression levels from controls.
ISR is a decisive cell response pathway that controls translation and bases a protective response and drive a transcriptional program to maintain and to contribute to organismal fitness. […] First, the inventors evaluated the ISRIB (an ISR-inhibitor) in MFS in vitro. […]

[6] = test system: Fbn1^C1039G/+ mice; assay: ISRIB by osmotic minipumps in Marfan mouse model: aortic ultrasound, blood pressure; format: in vivo; conditions: 28 days, to normal levels
Protocol: as §4
as §3, with “Mice were trained for BP measurements every day for five consecutive days.” left out, “1.5.0. […]” for “1.5.0.”

[7] = 24-weeks Fbn1^C1039G/+ mice, DON by osmotic minipumps, after 7 days of treatment
[8] = RNA-sequencing on aortas, same cohort as Fig. 3D

[N-]=[N+]=CC(=O)CC[C@H](N)C(=O)O [DON, 6-diazo-5-oxo-L-norleucine]
IRS signaling through Atf4, Atf6 protein and mRNA expression ([1]; ShFbn1-VSMCs, DON for 48h): decreased | O-GlcNac ([1]; shFbn1-VSMCs, DON 10nM, 48h, immunoblot and flow cytometry): efficiently reduced | mRNA levels of classical MFS genes such as Tgb1, Fgf2 growth factors, osteopontin (spp1) and colagen1 (Col1a1) ([1]; shFbn1-VSMCs, DON incubation): decreased | Aortic dilation [2, 7]: completely normalized | blood pressure [2, 7]: completely normalized | O-GlcNac levels and WGA staining in aortic tissue ([2]; DON treatment for 28 days): reduces | ISR (p-PERK, p-eIF2α, ATF4 staining and protein levels; Atf4, Atf6, Tgfb2 mRNA) in aortas ([2]; MFS-mice, same cohort as Fig. 3D): inhibited | expression levels of genes related to ER-stress and ISR such as Atf4, Chop, Xbpl, Hsp90b1 and Atf4-dependent genes [2, 8]: decreased | expression of conventional MFS-affected genes (TGFβ pathway and ECM-related proteins such as Tgfb3, Cnn2, Serpine1, Thbs1, Pdgfa, Acan, Vcan Sdc4) [2, 8]: decreased | histologic features of aortic degeneration in MFS, such as medial thickening, elastic fiber fragmentation, GAG and PG deposition ([2]; after 28 days of DON-treatment): restored | TGFB upstream regulator, activation Z-score ([2]; ingenuity analysis of aortic RNA-seq, DON treated mice, p-value 2,5710^-11): -9,913

N[C@H]1C(O)O[C@H](CO)[C@@H](O)[C@@H]1O (stereo partly shown) [Glucosamine]
histological features of CMD ([3]; elastin fiber fragmentation and Alcian blue staining after 28 days of treatment): reproduced | aortic diameter ([3]; glucosamine in drinking water (5%), 28 days, effect after 7 days of treatment): significantly increased | systolic blood pressure (BP) ([3]; glucosamine in drinking water (5%), after 7 days of treatment): decreased | aortic architecture such as elastin fiber fragmentation and amorphous matrix accumulation ([4]; after 28 days of treatment): worsen | aortic diameter ([4]; glucosamine in drinking water (5%), compared with control Fbn1^C1039G/+ mice): increased

O=C(COc1ccc(Cl)cc1)N[C@H]1CC[C@H](NC(=O)COc2ccc(Cl)cc2)CC1 [ISRIB]
Atf4, Atf6 mRNA levels [5]: reduces | aortic diameter [6]: decreases | blood pressure [6]: decreases
